In ChEMBL document CHEMBL3608223, “Quinolizidine alkaloids reduced mortality in EV71-infected mice by compensating for the levels of T cells” (2015) one finds Activity data, which are given here for 7 compounds.

Experiment [1] relates to Enterovirus A71. The experiment in a line: Antiviral activity against human enterovirus 71 infected in ICR mouse assessed as reduction in viral infection related clinical scores at 15 mg/kg, ip qd for 8 days dosed 2 hrs post infection and measured at 8 days post infection. The class given is functional, organism-based.
In experiment [2] the test system is Mus musculus. In words: Immunoregulatory activity in […] mouse assessed as reduction in DC cells at 60 mg/kg, ip once daily for 8 days by flow cytometry. It is filed as functional, organism-based.
In experiment [3] the test system is Mus musculus. The experiment in a line: Immunoregulatory activity in […] mouse assessed as reduction in NK cells at 60 mg/kg, ip once daily for 8 days by flow cytometry. The class given is functional, organism-based.
For experiment [4], the system named is Mus musculus. The experiment in a line: Immunoregulatory activity in […] mouse infected with human enterovirus 71 assessed as increase in CD3+ T cells at 15 mg/kg, ip once daily for 8 days by flow cytometry and measured at 8 days post infection. The class given is functional, organism-based. The settings on record: T-cell.
For experiment [5], the system named is Enterovirus A71. In words: Antiviral activity against human enterovirus 71 infected in ICR mouse assessed as increase in survival rate at 7.5 mg/kg, ip qd for 8 days dosed 2 hrs post infection and measured at 14 days post infection. It is filed as functional.
Experiment [6] relates to Enterovirus A71. In words: Antiviral activity against human enterovirus 71 infected in ICR mouse assessed as increase in survival rate at 15 mg/kg, ip qd for 8 days dosed 2 hrs post infection and measured at 14 days post infection. The class given is functional.
Experiment [7] has as its system Enterovirus A71. The experiment in a line: Antiviral activity against human enterovirus 71 infected in ICR mouse assessed as increase in survival rate at 15 mg/kg, ip qd for 8 days dosed 2 hrs post infection and measured at 14 days post infection relative to control. The class given is functional, organism-based.
Experiment [8] relates to Mus musculus. The experiment in a line: Immunoregulatory activity in […] mouse infected with human enterovirus 71 assessed as increase in CD8+ T cells at 15 mg/kg, ip once daily for 8 days by flow cytometry and measured at 8 days post infection. The class given is functional, organism-based. The settings on record: T-cell.
Experiment [9] relates to Enterovirus A71. In words: Antiviral activity against human enterovirus 71 infected in ICR mouse assessed as reduction in viral infection-induced phenotypic changes by measuring ruffled hair incidences at 15 mg/kg, ip qd for 8 days dosed 2 hrs post infection and measured at 8 days post infection. The class given is functional, organism-based.
For experiment [10], the system named is Enterovirus A71. The experiment in a line: Antiviral activity against human enterovirus 71 infected in ICR mouse assessed as mouse recovery from infection in 15 mg/kg, ip qd for 8 days dosed 2 hrs post infection and measured at 14 days post infection. The class given is functional, organism-based.
Experiment [11] has as its system Enterovirus A71. The experiment in a line: Antiviral activity against human enterovirus 71 infected in ICR mouse assessed as reduction in mouse body weight loss at 15 mg/kg, ip qd for 8 days dosed 2 hrs post infection. The class given is functional, organism-based.
For experiment [12], the system named is Enterovirus A71. The experiment in a line: Antiviral activity against human enterovirus 71 infected in ICR mouse assessed as reduction in viral infection-induced phenotypic changes by measuring paralysis incidences at 15 mg/kg, ip qd for 8 days dosed 2 hrs post infection and measured at 8 days post infection. The class given is functional, organism-based.

Experiment [13] deals with Mus musculus. In words: Immunoregulatory activity in […] mouse infected with human enterovirus 71 assessed as increase in CD4+ T cells at 15 mg/kg, ip once daily for 8 days by flow cytometry and measured at 8 days post infection. The class given is functional, organism-based. The settings on record: T-cell.
The test system of experiment [14] is Mus musculus. The experiment in a line: Immunoregulatory activity in […] mouse assessed as increase in CD4+ T cells at 60 mg/kg, ip once daily for 8 days by flow cytometry. The class given is functional, organism-based. The settings on record: T-cell.
For experiment [15], the system named is Mus musculus. The experiment in a line: Immunoregulatory activity in […] mouse assessed as increase in CD8+ T cells at 60 mg/kg, ip once daily for 8 days by flow cytometry. It is filed as functional, organism-based. The settings on record: T-cell.
The subject of experiment [16] is Mus musculus. The experiment in a line: Immunoregulatory activity in […] mouse assessed as reduction in B cells at 60 mg/kg, ip once daily for 8 days by flow cytometry. The class given is functional, organism-based.
The test system of experiment [17] is Enterovirus A71. The experiment in a line: Antiviral activity against human enterovirus 71 infected in ICR mouse assessed as reduction in viral infection realted clinical scores at 15 mg/kg, ip qd for 8 days dosed 2 hrs post infection. The class given is functional, organism-based.
Experiment [18] relates to Enterovirus A71. The experiment in a line: Antiviral activity against human enterovirus 71 infected in ICR mouse assessed as reduction in viral replications in muscle at 15 mg/kg, ip qd for 8 days dosed 2 hrs post infection and measured at 8 days post infection by qRT-PCR method. The class given is functional, organism-based.
Experiment [19] relates to Mus musculus. The experiment in a line: Immunoregulatory activity in […] mouse assessed as increase in CD3+ T cells at 60 mg/kg, ip once daily for 8 days by flow cytometry. The class given is functional, organism-based. The settings on record: T-cell.
Experiment [20] concerns Enterovirus A71. The experiment in a line: Antiviral activity against human enterovirus 71 infected in ICR mouse assessed as increase in survival rate at 30 mg/kg, ip qd for 8 days dosed 2 hrs post infection and measured at 14 days post infection. The class given is functional.
In experiment [21] the test system is Enterovirus A71. In words: Antiviral activity against human enterovirus 71 infected in ICR mouse assessed as increase in survival rate at 50 mg/kg, ip qd for 8 days dosed 2 hrs post infection and measured at 14 days post infection. It is filed as functional.

Each structure is given as a SMILES string. Active and inactive are the calls of the source. The calls are words filed in the database; no cut-off is given here.

On to `O=C1C=CC[C@@H]2[C@H]3CCC[N+]4([O-])CCC[C@@H](CN12)[C@@H]34` (stereo partly specified) [OXYSOPHOCARPINE], for which the outcome in the experiment with Enterovirus A71 [1], in the experiment on Mus musculus [2], in the experiment with Mus musculus [3], with Mus musculus [4], in the experiment on Enterovirus A71 [7] and with Mus musculus [8] was Active. The result with Enterovirus A71 [9], with Enterovirus A71 [10], in the experiment on Enterovirus A71 [11], in the experiment on Enterovirus A71 [12], with Mus musculus [13] and with Mus musculus [14] was Active. Moreover, the result with Mus musculus [15], in the experiment on Mus musculus [16], in the experiment on Enterovirus A71 [17], in the experiment on Enterovirus A71 [18] and in the experiment on Mus musculus [19] was Active. In addition, the Activity with Enterovirus A71 [5] is 25%; in the experiment on Enterovirus A71 [6], 30%; in the experiment on Enterovirus A71 [20], 25%.
Take `O=C1CCC[C@@H]2[C@H]3CCCN4CCC[C@H](CN12)[C@@H]34`: the result with Mus musculus [2], in the experiment with Mus musculus [3], in the experiment with Enterovirus A71 [7], in the experiment on Mus musculus [14], with Mus musculus [15] and in the experiment on Mus musculus [16] was Active. Besides, in the experiment with Mus musculus [19], the result was Active.
For the compound `NC(=O)c1ncn([C@@H]2O[C@H](CO)[C@@H](O)[C@H]2O)n1` [RIBAVIRIN], in the experiment with Enterovirus A71 [21], the Activity was 15%.
`O=C1C=CC[C@@H]2[C@H]3CCCN4CCC[C@@H](CN12)[C@@H]34`: the result in the experiment on Mus musculus [2], with Mus musculus [3], with Enterovirus A71 [7], with Mus musculus [14], with Mus musculus [15] and with Mus musculus [16] was Active. Further, the outcome in the experiment on Mus musculus [19] was Active.
On to `O=C1CCC[C@@H]2[C@H]3CCCN4CCC[C@@H](CN12)[C@@H]34`, for which the outcome with Mus musculus [2], in the experiment on Mus musculus [3], in the experiment on Enterovirus A71 [7], in the experiment with Mus musculus [14], in the experiment with Mus musculus [15] and in the experiment with Mus musculus [16] was Active. Besides, in the experiment with Mus musculus [19], the result was Active.
As for `O=C1CCC[C@@H]2[C@H]3CCC[N+]4([O-])CCC[C@@H](CN12)[C@@H]34` (stereo partly specified), the result with Mus musculus [2], in the experiment with Mus musculus [3], in the experiment with Enterovirus A71 [7], with Mus musculus [14], with Mus musculus [15] and with Mus musculus [16] was Active. In the experiment with Mus musculus [19], the outcome was Active.
With `O=c1cccc2n1C[C@@H]1CCCN3CCC[C@H]2[C@H]13`, the result with Mus musculus [2], with Mus musculus [3], in the experiment with Enterovirus A71 [7], with Mus musculus [14], in the experiment on Mus musculus [15] and in the experiment with Mus musculus [16] was Active. In addition, in the experiment with Mus musculus [19], the outcome was Active.
